Results reported in patent US20220202832A1, “ALLOPREGNANOLONE COMPOSITIONS AND USES THEREOF” (The Regents of the University of California, priority 2019, published 2022).
“Also recorded” adds a separate entry of the source. Read-outs that look alike come from different tables or passages of the source.

Legend:
[1] = tested on: PTZ-induced seizures (seizure threshold); experiment: timed intravenous PTZ seizure threshold test; assay type: in vivo, mice; settings: for elevation in thresholds to the three seizure endpoints: intranasal 1 mg/kg, compared with allopregnanolone 16 mg/kg; for effect on seizure threshold parameters: Example 2
Description: (§1) The thresholds for various behavioral seizure stages induced by the PTZ and bicuculine were determined by infusing the convulsant drugs via a 27-gauge, 0.75-inch “butterfly” needle inserted into the lateral tail vein. PTZ (10 mg/ml) and bicuculline (0.1 mg/ml) were infused IV at a constant rate of 0.5 ml/min using a 5-ml syringe (BD Biosciences, Franklin Lakes, N.J.) mounted on an infusion pump (Model ‘11’ Plus Syringe Pump; Harvard Apparatus, Holliston, Mass.). The syringe was connected to the needle by polyethylene tubing. The infusion was stopped at 3 min or at the onset of tonic extension, whichever occurred first. The time to occurrence (“infusion duration”) to the following endpoints from the start of the convulsant infusion were determined: (1) the first myoclonic jerk; (2) the onset of generalized clonus; and (3) the onset of tonic extension. Infusion duration values represent the time from the start of the convulsant infusion to the onset of the endpoint. The threshold value (mg/kg) for each endpoint was determined according to the following formula: (infusion duration [s]×infusion rate [ml/min]×convulant concentration [10 mg/ml or 0.1 mg/ml]×1000)/(60 s×body weight of mouse [g]).

motor function of mice = experiment: horizontal screen test (motor impairment); assay type: in vivo; settings: for animals that fell from the grid: intranasal 1 mg/kg; for motor function in the horizontal screen test, in words: intranasal, doses with comparable antiseizure activity
Description: At various times after intranasal administration, mice were placed on a horizontally oriented grid (consisting of parallel 1.5-mm diameter rods situated 1 cm apart) for 2-3 s and the grid was inverted and held approximately 30-40 cm above a padded surface for a maximum of 60 s. If the animal fell from the grid, the latency from the time of inversion to the time of fall was recorded.

PTZ-induced seizures = experiment: maximal PTZ seizure test; assay type: in vivo, mice
Description: Solutions of allopregnanolone (5α,3α-P) (15 mg/ml) were prepared in 40% sulfobutylether-β-cyclodextrin sodium salt in 0.9% saline. Seizures were induced in mice with pentylenetetrazol (PTZ; […] IP). 5α,3α-P solution (6 and 10 mg/kg) or vehicle was administered intranasally 5, 10 and 15 min prior to administration of the PTZ. […] The times to onset of myoclonic body twitches and clonic and tonic seizures were recorded. 5α,3α-P was considered to have antiseizure activity if it delayed the onset of seizure signs in comparison with the time of their occurrence in vehicle-treated animals.
The times to occurrence of the 3 seizure signs as in the timed intravenous PTZ seizure test were recorded. Allopregnanolone (10 mg/kg) or vehicle was administered intranasally 10 min prior to the PTZ injection.

[2] = tested on: bicuculline-induced seizures (seizure threshold); experiment: intravenous bicuculline threshold test; assay type: in vivo, mice; settings: intranasal 16 mg/kg; 10 min
Description: as §1

righting reflex of mice = experiment: loss of righting reflex test; assay type: in vivo; settings: for loss of righting reflex (sedation), in words: 10 min to 30 min after administration
Description: Time course of loss of righting reflex following intranasal allopregnanolone (16 mg/kg) and intramuscular allopregnanolone (16 mg/kg). Loss of righting reflex is a nonnoxious behavioral paradigm that indicates loss of consciousness (hypnosis). […] Intranasal delivery of alloprepregnanolone according to the methods described herein avoids the adverse effects on behavior associated with intramuscular bolus administration.
For the test, the mouse was placed on its back on a tabletop.

[3] = plasma pharmacokinetics after intranasal or intramuscular dosing
Description: Allopregnanolone (16 mg/mL in 40% Captisol® in 0.9% saline) was administered intranasally at a total dose of 10 mg/kg. 2-3 microliters of solution was administered 3-5 times to each nostril (6-10 times total) over a period of 3.5 min. Allopregnanolone (6 mg/mL in 24% Captisol® in 0.9% saline) was administered intramuscularly at a total dose of 12 mg/kg. Time course of plasma levels of allopregnanolone following intranasal allopregnanolone (10 mg/kg) and intramuscular allopregnanolone (12 mg/kg) was monitored. At various times after administration, trunk blood was collected in chilled heparinized tubes. In some cases, blood was collected by retro-orbital puncture. Plasma was separated and assayed for allopregnanolone as described in Zolkowska D. et al., Epilepsia 2018 October; 59 Suppl 2:220-227.
At various times after intranasal administration, trunk blood samples were collected into chilled tubes. Brains were removed, separated into 3 sections (olfactory bulb, forebrain with midbrain, cerebellum with attached pons and medulla) and fast-frozen on dry ice. Blood was centrifuged at 1500 RCF for 10 min to separate the plasma. Brain and plasma samples were stored at −80° C. until processing. Plasma and brain samples were analyzed for allopregnanolone as described in Zolkowska et al (2018). The lower limit of quantification in plasma is 2.5 ng/ml.

[4] = cited from earlier work
[5] = human; cited from earlier work
[6] = even when solubilized with sulfobutyl ether β-cyclodextrin, sodium salt; cited from earlier work
[7] = brain region pharmacokinetics after intranasal dosing
[8] = intranasal; cited from earlier work
[9] = intranasal 10 mg/kg, 10 min before PTZ 80 mg/kg IP
[10] = intranasal 16 mg/kg, 10 min after dosing
[11] = mouse, plasma, inhaled or intranasal, 10 mg/kg
[12] = mouse, olfactory bulb, inhaled or intranasal, 10 mg/kg

## Cc1ncc2n1-c1ccc(Cl)cc1C(c1ccccc1F)=NC2 [midazolam]
[1]
  elevation in thresholds to the three seizure endpoints: comparable elevations
Motor function of mice
  animals that fell from the grid: all
  motor function in the horizontal screen test, in words: dramatically impair motor function

## CN1C(=O)CN=C(c2ccccc2)c2cc(Cl)ccc21 [diazepam]
[1]
  elevation in thresholds to the three seizure endpoints: comparable elevations
Motor function of mice
  animals that fell from the grid: all
  motor function in the horizontal screen test, in words: dramatically impair motor function

## CC(=O)[C@H]1CC[C@H]2[C@@H]3CC[C@H]4C[C@H](O)CC[C@]4(C)[C@H]3CC[C@]12C [allopregnanolone, 3α-hydroxy-5α-pregnan-20-one]
PTZ-induced seizures; Example 1, administered 15 min before PTZ, compared with 5 min
  delay in seizure signs: less active
PTZ-induced seizures; Example 1, intranasal 6 mg/kg
  effect on time to onset of seizure signs: delayed the time to onset of all seizure signs
PTZ-induced seizures; Example 1, intranasal 10 mg/kg
  protection from tonic hind limb extension and mortality: some animals were protected
PTZ-induced seizures; [9]
  ratio of latencies, drug to vehicle: clonus: 1.5
  ratio of latencies, drug to vehicle: myoclonic twitch: 1.3
  ratio of latencies, drug to vehicle: tonic extension: 4.4
PTZ-induced seizures; intranasal 10 mg/kg, of the 14 animals tested
  animals that failed to exhibit tonic extension: 5
[1]; intranasal 16 mg/kg, 10 minutes
  effect on seizure threshold parameters: large and statistically significant increase
[1]; intranasal 16 mg/kg, 1 hour
  effect on seizure threshold parameters: diminishes
[1]; intranasal 16 mg/kg, 8 hours
  effect on seizure threshold parameters: absent; also recorded: no substantial elevation
[1]; intranasal 16 mg/kg, 10 min
  change in tonic extension threshold versus vehicle: statistically significant increase
[1]; [10]
  ratio of mean threshold values, drug to vehicle: clonus: 1.4
  ratio of mean threshold values, drug to vehicle: myoclonic twitch: 1.3
  ratio of mean threshold values, drug to vehicle: tonic extension: 2.7
[1]; intranasal 16 mg/kg, 15 min (maximum elevation)
  ratio of mean thresholds, drug to vehicle: tonic extension: 5.3
[1]; intranasal 16 mg/kg, 60 min
  ratio of mean thresholds, drug to vehicle: tonic extension: 1.3
[1]; intranasal 16 mg/kg, 360 min
  ratio of mean thresholds, drug to vehicle: tonic extension: 1.1
[2]
  ratio of threshold, drug to vehicle: tonic extension: 1.5
Motor function of mice; intranasal 16 mg/kg
  animals that did not fall from the grid: 5 of 8
  area under mean holding time versus time curve, compared with untreated (naive) animals: not significantly different
Motor function of mice
  motor function in the horizontal screen test, in words: fails to cause substantial sedation or motor impairment
Righting reflex of mice; intramuscular 16 mg/kg
  animals exhibiting loss of righting reflex: 9 of 10
  loss of righting reflex (sedation), in words: substantial loss of righting reflex; also recorded: profound sedation
Righting reflex of mice; intramuscular 16 mg/kg, listed as Allopregnanolone
  loss of righting reflex (sedation), in words: loss of righting reflex in a high proportion of mice
Righting reflex of mice; intranasal 16 mg/kg
  loss of righting reflex (sedation/general anesthesia), in words: not associated with substantial sedation/general anesthesia; also recorded: only minimal loss of righting reflex
Righting reflex of mice; intranasal 16 mg/kg, 60 min observation
  animals exhibiting loss of righting reflex: 2 of 25
Righting reflex of mice; intranasal 16 mg/kg, listed as Allopregnanolone
  loss of righting reflex (sedation/general anesthesia), in words: loss of righting reflex in only a small proportion of animal
[3]; intramuscular
  time therapeutic levels are maintained: about 2 hours
[3]; intramuscular 12 mg/kg
  time by which plasma levels taper off: about 4 hours
[3]; intranasal
  time therapeutically meaningful blood levels are maintained: up to 8 hours
[3]; intranasal 10 mg/kg
  time plasma levels are sustained: up to 8 hours
[3]; intranasal 10 mg/kg, likely value
  true Cmax (time): < 5 min
[3]; [11]
  Cmax: 3500 ng/mL
  Tmax: 1 min
[3]; mouse, plasma, inhaled or intranasal, 10 mg/kg, plasma initial phase t1/2, intranasal 10 mg/kg, first 15 min
  half-life: 4.9 min
[3]; mouse, plasma, inhaled or intranasal, 10 mg/kg, plasma t1/2 (overall curve), intranasal 10 mg/kg
  half-life: 49 min
[4]; intramuscular, prior study
  dose adjusted Cmax: 2150 ng/mL
[4]; intramuscular
  Tmax: 60 min
[4]; mice
  plasma concentration half-time (t1/2): 16 min
[5]
  t1/2: 35 min
[6]
  oral bioavailability: not orally bioavailable
[7]; intranasal
  olfactory bulb levels compared with plasma levels: substantially higher than the plasma levels
[7]; intranasal 16 mg/kg, mean of 1, 2, 5 and 10 min
  olfactory bulb concentration relative to whole brain: 10 fold
[7]; mouse, forebrain, cerebellum, inhaled or intranasal, 10 mg/kg
  Cmax: 600 to 700 ng/g
[7]; [12]
  Cmax: 16000 ng/g
  Tmax: 1 min

## CCC(=O)O[C@]1(C(=O)SCF)[C@H](C)C[C@H]2[C@@H]3C[C@H](F)C4=CC(=O)C=C[C@]4(C)[C@@]3(F)[C@@H](O)C[C@@]21C [fluticasone propionate]
[8]
  systemic availability: negligible

## CC1(C)O[C@@H]2C[C@H]3[C@@H]4C[C@H](F)C5=CC(=O)C=C[C@]5(C)[C@H]4[C@@H](O)C[C@]3(C)[C@]2(C(=O)CO)O1 [flunisolide]
[8]
  systemic availability: substantial
